Experimental findings from US9301923B2, “Lipids, lipid compositions, and methods of using them” (NOVARTIS AG, priority 2009, dated 2016) are described below.

A short description of data set [1]: pKa of the lipid by TNS fluorescence. Type of data set: physicochemical. Conditions: pKa. How it is done: Unless explicitly indicated otherwise, all pKas referred to herein are measured in water at standard temperature and pressure. Also, unless otherwise indicated, all references to pKa are references to pKa measured using the following technique.
2 mM solution of lipid in ethanol are prepared by weighing the lipid and then dissolving in ethanol.
This is done with all eight buffers.
Priority: Column priority • Carriage Speed: Normal • Auto read: Off
The normalized fluorescence intensity vs. pH chart is then plotted in the Microsoft Excel software. The eight points are connected with a smooth line.
The pKa determined using this method is precise to about 0.2 pKa units.

Another data set concerns Factor VII. Nature of the data set: Factor VII activity assay, in vivo liver delivery of FVII siRNA LNP. Also noted: species or system mouse. The note with it: ~48 h. How it is done:
Female CD-1 mice are received from Charles River Labs and maintained on standard lab chow and water ad libitum. The animals weigh approximately 25 grams at time of dosing. Formulated siRNA is administered as a single dose at various dose levels intravenously via the lateral tail vein calculated on a (mg siRNAs/kg) basis according to individual animal weights (10 ml/kg injection volume).
Formulated siRNAs are made up of double stranded siRNA sequences specific to a target mRNA sequence, and are in the form of lipid nucleotid particles (LNPs) containing cationic lipids, stealth lipids and neutral lipids, as provided in the Examples below. The siRNA construct for use in targeting the liver is specific to Factor VII. […] FVII siRNA duplex sequence
Formulated Factor VII siRNA is administered as a single dose at various dose levels intravenously via the lateral tail vein calculated on a mg siRNAs/kg basis according to individual animal weights (10 ml/kg injection volume). Approximately 48 h after injection, the mice are euthanized by CO2 inhalation followed by exsanguinations through the vena cava. […] In some cases, small pieces (˜50 mg) of liver are collected and snap frozen in liquid nitrogen for follow up mRNA quantitation.
An assay standard curve is prepared using pooled plasma aliquots from the vehicle control animals.

Data set [2] in a line: Particle size and PDI by dynamic light scattering (Malvern Zetasizer). The class given is physicochemical. The protocol:
Unless indicated otherwise, all sizes referred to herein are the average sizes (diameters) of the fully formed nanoparticle, as measured by dynamic light scattering on a Malvern Zetasizer. The nanoparticle sample is diluted in phosphate buffered saline (PBS) so that the count rate is approximately 200-400 kcts. The data is presented as a weighted average of the intensity measure.
The acronym PDI stands for polydispersity index. Unless indicated otherwise, all PDIs referred to herein are the PDI of the fully formed nanoparticle, as measured by dynamic light scattering on a Malvern Zetasizer. The nanoparticle sample is diluted in phosphate buffered saline (PBS) so that the count rate is approximately 200-400 kcts.

Setting [3] is: dose 3 mg/kg siRNA i.v., lipid/DSPC/CHOL/AVANTI 880150P 50/28/18/4, N/P 3.43.
The mark [4] stands for this setting: dose 3 mg/kg siRNA i.v., lipid/no neutral lipid/CHOL/AVANTI 880150P 50/0/46/4, N/P 3.43.
The mark [5] stands for this setting: lipid/DSPC/CHOL/AVANTI 880150P 50/28/18/4, N/P 3.43.
Setting [6] is: lipid/no neutral lipid/CHOL/AVANTI 880150P 50/0/46/4, N/P 3.43.

“And” between values parts separate entries of the source, which are not always exact repeats. Equal values may be shown once.

As for `CCCCC/C=C\C/C=C\CCCCCCCCOCC(CN1CCC2(CC1)OCCCO2)OCCOCCO[C@H]1CC[C@@]2(C)C(=CCC3C2CC[C@@]2(C)C3CC[C@@H]2[C@H](C)CCCC(C)C)C1` (stereo partly drawn) [E0007], the pKa in data set [1] was determined as 5.84. For the same molecule, the FVII inhib % with Factor VII (setting [3]) is on record as 72.2%; with Factor VII (setting [4]), 76.8%. Also, the “Final size (nm)” value in data set [2] (setting [5]) amounted to 92 nm; in data set [2] (setting [6]), 138 nm. Also, the values for the PDI in data set [2] (setting [5]) and in data set [2] (setting [6]) were 0.178 and 0.148, respectively.

`CCCCC/C=C\C/C=C\CCCCCCCCOCC(CN1CC[C@H]2OC(C)(C)O[C@H]2C1)OCCOCCO[C@H]1CC[C@@]2(C)C(=CCC3C2CC[C@@]2(C)C3CC[C@@H]2[C@H](C)CCCC(C)C)C1` (stereo partly drawn) [E0009] yielded a pKa in data set [1] of 4.89. Further, the FVII inhib % in the data set with Factor VII (setting [3]) came to 38.4%; with Factor VII (setting [4]), 6.9%. Besides, the “Final size (nm)” value in data set [2] (setting [5]) is listed as 83 nm; in data set [2] (setting [6]), 82 nm. The PDI in data set [2] (setting [5]) is 0.2; in data set [2] (setting [6]), 0.16.

As for `CCCCC/C=C\C/C=C\CCCCCCCCOCC(CN1CCCC2CCCCC21)OCCOCCO[C@H]1CC[C@@]2(C)C(=CCC3C2CC[C@@]2(C)C3CC[C@@H]2[C@H](C)CCCC(C)C)C1` (stereo partly drawn) [E0010], in data set [1], the pKa came to 5.85. Besides, the FVII inhib % with Factor VII (setting [3]) was found to be 46.8%; in the data set with Factor VII (setting [4]), 65.1%. Further, the “Final size (nm)” value is 90 nm in data set [2] (setting [5]) and 80 nm in data set [2] (setting [6]). Further, the PDI in data set [2] (setting [5]) was found to be 0.184; in data set [2] (setting [6]), 0.201.

`CCCCC/C=C\C/C=C\CCCCCCCCOCC(CN1CCCC1)OCCOCCO[C@H]1CC[C@@]2(C)C(=CC[C@H]3[C@@H]4CC[C@H]([C@H](C)CCCC(C)C)[C@@]4(C)CC[C@@H]32)C1` (stereo partly drawn) [E0015] came in with a pKa in data set [1] of 7.39. Moreover, the FVII inhib % with Factor VII (setting [3]) was 30.7%; in the data set on Factor VII (setting [4]), 77.1%. For the same molecule, the “Final size (nm)” value turned out to be 164 nm in data set [2] (setting [5]) and 130 nm in data set [2] (setting [6]). Also, the PDI worked out at 0.06 in data set [2] (setting [5]) and 0.05 in data set [2] (setting [6]).

In turn, `CCCCC/C=C\C/C=C\CCCCCCCCOCC(CN1CCC2(CC1)OCCO2)OCCOCCO[C@H]1CC[C@@]2(C)C(=CCC3C2CC[C@@]2(C)C3CC[C@@H]2[C@H](C)CCCC(C)C)C1` (stereo partly drawn) [E0016] registered a pKa in data set [1] of 5.85. Besides, the FVII inhib % in the data set with Factor VII (setting [3]) is listed as 88.8%; in the data set with Factor VII (setting [4]), 59.9%. The figures for the “Final size (nm)” value in data set [2] (setting [5]) and in data set [2] (setting [6]) were 97 nm and 178 nm, respectively. In addition, the PDI in data set [2] (setting [5]) was 0.175; in data set [2] (setting [6]), 0.206.

The molecule `CCCCC/C=C\C/C=C\CCCCCCCCOCC(CN1CCCCCC1)OCCOCCO[C@H]1CC[C@@]2(C)C(=CC[C@H]3[C@@H]4CC[C@H]([C@H](C)CCCC(C)C)[C@@]4(C)CC[C@@H]32)C1` (stereo partly drawn) [E0017] gave a pKa in data set [1] of 6.46. For the same molecule, the FVII inhib % is listed as 53.8% in the data set on Factor VII (dose 1 mg/kg siRNA i.v., lipid/DSPC/CHOL/AVANTI 880150P 50/28/18/4, N/P 3.43); 98.3% in the data set on Factor VII (setting [3]); 96.5% with Factor VII (setting [4]). In addition, the “Final size (nm)” value was 106 nm in data set [2] (setting [5]) and 97 nm in data set [2] (setting [6]). Also, the figures for the PDI in data set [2] (setting [5]) and in data set [2] (setting [6]) were 0.17 and 0.19, respectively.

For `CCCCC/C=C\C/C=C\CCCCCCCCOCC(CN1CC=CCC1)OCCOCCO[C@H]1CC[C@@]2(C)C(=CCC3C2CC[C@@]2(C)C3CC[C@@H]2[C@H](C)CCCC(C)C)C1` (stereo partly drawn) [E0018], the pKa in data set [1] amounted to 5.9. In addition, the FVII inhib % with Factor VII (dose 1 mg/kg siRNA i.v., lipid/no neutral lipid/CHOL/AVANTI 880150P 50/0/46/4, N/P 3.43) was 40.5%; in the data set on Factor VII (setting [3]) it was 91.8%; with Factor VII (setting [4]), 98%. The “Final size (nm)” value is 119 nm in data set [2] (setting [5]); 103 nm and 140 nm in data set [2] (setting [6]). Further, the PDI was 0.095 in data set [2] (setting [5]); 0.113 and 0.13 in data set [2] (setting [6]).

A word on the pKa: it is the negative logarithm of the acid dissociation constant. Higher therefore signals a group that holds its proton tightly.
